# Data as given in patent US9062088B2, “CDK-inhibiting pyrrolopyrimidine carboxamide derivative or pharmaceutically acceptable salt thereof, and pharmaceutical composition containing the same as active ingredient for preventing or treating hepatocellular carcinoma” (SNU R&DB Foundation, priority 2010, dated 2015).
# Assays:
# [1] = tested on: caspase-3 activity in SNU-354 cells; assay: Measurement of caspase-3 activity (Experimental Example 1-6-2); type: cell-based, human
# Experimental: (§1) SNU-354 cells treated with the compounds of Examples 1 and 2 were lysed with lysis buffer (0.5% triton X-100, 20 mM Tris-HCl (pH 7.5), 2 mM magnesium chloride, 1 mM DTT, 1 mM EGTA, 50 mM β-glycerophosphate, 25 mM sodium fluoride, 1 mM Na3VO4, 2 μg/mL leupeptin, 2 μg/mL pepstatin A, 100 μg/mL phenylmethylsulfonyl fluoride, 1 μg/mL antipain). The protease analysis buffer necessary for the reaction (20 mM HEPES (pH 7.5), 10% glycerol, 2 mM DTT) was mixed with 20 μM Ac-DEVD-AMC (BD Biosciences, CA, USA) and cell lysates, followed by reaction at 37° C. for 1 hour. Upon completion of the reaction, caspase-3 activity was measured at 380 nm of excitation and 460 nm of emission with spectrofluorometer (TECAN, Switzerland) and the results are shown in FIG. 18 and Table 8.
# Cdk9 = assay: Western blotting of Cdk9 activity (phospho RNA Pol II Ser 2); type: cell-based, human; settings: 0 nM = 100
# Experimental: (§2) After treating the compound of Example 2 to SNU-354 cells, cell pellet was lysed with lysis buffer (0.5% triton X-100, 20 mM Tris-HCl (pH 7.5), 2 mM magnesium chloride, 1 mM DTT, 1 mM EGTA, 50 mM β-glycerophosphate, 25 mM sodium fluoride, 1 mM Na3VO4, 2 μg/mL leupeptin, 2 μg/mL pepstatin A, 100 μg/mL phenylmethylsulfonyl fluoride, and 1 μg/mL antipain) at 4° C. for 1 hour, followed by quantification of protein. A proper amount of protein was electrophoresed on SDS-PAGE gel and then transferred onto polyvinylidene difluoride membrane (Millipore Co., Bedford, Mass.). The membrane was reacted in inhibiting solution (PBS, 5% skim milk, 0.1% tween-20) at room temperature for 1˜2 hours. The membrane was reacted with the primary antibody (goat anti-phospho-Rb, rabbit anti-nucleolin) diluted in the inhibiting solution (1:1000). Then, the membrane was washed with PBST, followed by reaction with the proper secondary antibody (horseradish peroxidase (HRP) conjugated) at room temperature for 1 hour.
# (§3) Experiment was performed by the same manner as described in step 2 of Experimental Example 1 except that rabbit anti-phospho RNA Pol II (Ser 5) and rabbit anti-phospho RNA Pol II (Ser 2) (from Bethyl, TX, USA) were used as primary antibodies. The results are shown FIG. 9˜FIG. 12, and Table 4 and Table 5.
# Cdk9/cyclin T1 = target: T1, Cdk9/cyclin T1 (Homo sapiens, UniProt P50750); assay: In vitro kinase assay of Cdk9, RNA Pol II-CTD-GST substrate; type: biochemical; settings: 0 nM = 100
# T1 construct: purchased Upstate
# Experimental: To kinase assay buffer were added RNA Pol II-CTD-GST protein (Jena Bioscience, Germany) as a substrate, Cdk9/cyclin T1 or Cdk7/cyclin H/MAT1 recombinant protein (Upstate) as an enzyme, 2.5 μCi [γ-32P]ATP, and 100 μM MgAc/ATP. The total reaction volume was adjusted to 50 μl. Kinase assay reaction was induced at 30° C. for 20 minutes. Upon completion of the reaction, electrophoresis was performed on 8% SDS-polyacrylamide gel. The activities of Cdk7 and Cdk9 over the concentrations of the compounds of Example 1 and Example 2 were confirmed by autoradiography and the results are shown in FIG. 5˜FIG. 8 and Table 3.
# The intensity of bands was analyzed by densitometry (GS-800, Bio-Rad).
# SNU-354 cells = assay: FACS analysis of sub G1 ratio (Experimental Example 1-6-3); type: cell-based, human
# Experimental: The cells were collected and washed with cold PBS, followed by reaction in 500 μl of cold 70% ethanol at 4° C. for overnight to fix the cells. The cells were washed with 500 μl of PBS three times, followed by reaction with 500 μl of PBS containing 50 μg/mL propidium iodide (P1) and 50 μl of 1 mg/mL RNAse A at room temperature for 30 minutes in the darkness. Fluorescence of the P1 stained cell was measured by using caliber flow cytometer and cell quest program (Becton Dickinson Immunocytometry Systems, CA, USA). Sub G1 ratio changes of HCC SNU-354 cells induced by the compounds of Examples 1 and 2 were measured by FACS analysis. The results are shown in FIG. 19, FIG. 20, Table 9 and Table 10.
# Cdk7 = assay: Western blotting of Cdk7 activity (phospho RNA Pol II Ser 5); type: cell-based, human; settings: 0 nM = 100
# Experimental: as §2, §3
# [2] = tested on: caspase-3 activity in SNU-354 cells; assay: Measurement of caspase-3 activity (Experimental Example 4); type: cell-based, human; design: unit not given here
# Experimental: as §1, with “Example 1˜Example 6” for “Examples 1 and 2”, “25” for “18”, “12.” for “8.”
# T1 sequence (P50750 whole entry): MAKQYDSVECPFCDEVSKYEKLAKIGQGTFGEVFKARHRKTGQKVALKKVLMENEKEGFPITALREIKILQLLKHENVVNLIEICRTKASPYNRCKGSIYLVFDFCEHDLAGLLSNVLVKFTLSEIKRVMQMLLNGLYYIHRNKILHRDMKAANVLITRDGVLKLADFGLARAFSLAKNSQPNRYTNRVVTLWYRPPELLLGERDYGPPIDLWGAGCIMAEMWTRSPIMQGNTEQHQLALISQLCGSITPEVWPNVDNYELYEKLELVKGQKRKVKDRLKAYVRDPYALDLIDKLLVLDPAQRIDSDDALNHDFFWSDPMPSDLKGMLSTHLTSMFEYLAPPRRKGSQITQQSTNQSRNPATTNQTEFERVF
# T1 sequence (O60563 whole entry partner): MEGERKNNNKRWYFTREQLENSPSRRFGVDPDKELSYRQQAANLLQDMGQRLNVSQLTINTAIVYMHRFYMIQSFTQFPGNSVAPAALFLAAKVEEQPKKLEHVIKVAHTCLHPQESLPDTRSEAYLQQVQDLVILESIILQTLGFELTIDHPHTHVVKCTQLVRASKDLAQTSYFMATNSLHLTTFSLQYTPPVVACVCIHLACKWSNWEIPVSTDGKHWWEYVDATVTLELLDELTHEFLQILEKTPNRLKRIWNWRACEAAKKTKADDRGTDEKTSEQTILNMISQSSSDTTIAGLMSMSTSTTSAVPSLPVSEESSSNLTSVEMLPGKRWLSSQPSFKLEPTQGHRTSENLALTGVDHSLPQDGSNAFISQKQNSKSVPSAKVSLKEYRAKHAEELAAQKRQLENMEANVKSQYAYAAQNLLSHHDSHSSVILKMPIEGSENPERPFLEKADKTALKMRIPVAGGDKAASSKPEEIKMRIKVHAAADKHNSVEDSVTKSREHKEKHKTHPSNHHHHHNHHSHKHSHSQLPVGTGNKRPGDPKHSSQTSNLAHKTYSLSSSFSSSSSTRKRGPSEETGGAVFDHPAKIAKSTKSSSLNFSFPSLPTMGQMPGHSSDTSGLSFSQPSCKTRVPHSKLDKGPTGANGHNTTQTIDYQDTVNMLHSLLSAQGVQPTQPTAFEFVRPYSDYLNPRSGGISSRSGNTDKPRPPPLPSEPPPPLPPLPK
Structure (SMILES),Cdk9 activity (Cdk9; 0.1 nM) [%],Cdk9 activity (Cdk9; 0.5 nM) [%],Cdk9 activity (Cdk9; 1 nM) [%],Cdk9 activity (Cdk9; 5 nM) [%],Cdk9 activity (Cdk9; 10 nM) [%],Cdk9 activity (Cdk9; 50 nM) [%],Cdk9 activity (Cdk9/cyclin T1; 10 nM) [%],Cdk9 activity (Cdk9/cyclin T1; 100 nM) [%],Cdk9 activity (Cdk9/cyclin T1; 1000 nM) [%],"sub G1 ratio (%) (SNU-354 cells; 0.1 μM, 24 hours, 0 μM = 3.0)","sub G1 ratio (%) (SNU-354 cells; 0.5 μM, 24 hours, 0 μM = 3.0)","sub G1 ratio (%) (SNU-354 cells; 1 μM, 24 hours, 0 μM = 3.0)","sub G1 ratio (%) (SNU-354 cells; 5 μM, 24 hours, 0 μM = 3.0)","sub G1 ratio (%) (SNU-354 cells; 10 μM, 24 hours, 0 μM = 3.0)","sub G1 ratio (%) (SNU-354 cells; 50 μM, 24 hours, 0 μM = 3.0)","sub G1 ratio (%) (SNU-354 cells; 50 μM, time 6 h, 0 h = 10.3)","sub G1 ratio (%) (SNU-354 cells; 50 μM, time 12 h, 0 h = 10.3)","sub G1 ratio (%) (SNU-354 cells; 50 μM, time 18 h, 0 h = 10.3)","sub G1 ratio (%) (SNU-354 cells; 50 μM, time 24 h, 0 h = 10.3)",concentration at which sub G1 ratio was rapidly increased (SNU-354 cells; 24 hours) [µM],other results
"NC(=O)c1c(Br)nc2n([C@H]3O[C@@H](CO)[C@H](O)[C@H]3O)cnc(N)c1-2 [Example 1, 4-amino-6-bromo-1-((2S,3R,4R,5S)-3,4-dihydroxy-5-(hydroxymethyl)-tetrahydrofuran-2-yl)-1H-pyrrolo[2,3-d]pyrimidine-5-carboxamide]",90.4,87.0,46.1,1.9,1.3,0.2,15.8,1.0,0.1,2.7,3.2,3.5,28.1,64.2,71.1,29.1,51.8,71.7,78.1,5,caspase-3 activity relative to the control ([1]; 1.0 uM and up): three times as high as that of the control; Cdk7 activity (Cdk7; 0.1 nM): 90.1%; Cdk7 activity (Cdk7; 0.5 nM): 76.3%; Cdk7 activity (Cdk7; 1 nM): 37.6%; Cdk7 activity (Cdk7; 5 nM): 3.0%; Cdk7 activity (Cdk7; 10 nM): 1.7%; Cdk7 activity (Cdk7; 50 nM): 0.3%; Caspase-3 activity ([2]; 5 μM): 8.4; Caspase-3 activity ([2]; 10 μM): 8.1
"CC(C)C(=O)OC[C@@H]1O[C@H](n2cnc(N)c3c(C(N)=O)c(Br)nc2-3)[C@H](O)[C@H]1O [Example 2, ((2S,3R,4R,5S)-5-(4-amino-6-bromo-5-carbamoyl-1H-pyrrolo[2,3-d]pyrimidin-1-yl)-3,4-dihydroxy-tetrahydrofuran-2-yl)methyl isobutyrate]",81.5,27.3,11,2.2,1.1,0.7,95.4,40.5,3.3,3.8,39.6,52.0,69.8,72.6,73.1,51.6,67.6,72.3,81.2,0.5,caspase-3 activity relative to the control ([1]; 0.5 uM and up): 7 times; Cdk7 activity (Cdk7; 0.1 nM): 88.4%; Cdk7 activity (Cdk7; 0.5 nM): 44.0%; Cdk7 activity (Cdk7; 1 nM): 12.7%; Cdk7 activity (Cdk7; 5 nM): 3.3%; Cdk7 activity (Cdk7; 10 nM): 1.6%; Cdk7 activity (Cdk7; 50 nM): 0.6%; Caspase-3 activity ([2]; 5 μM): 9.7; Caspase-3 activity ([2]; 10 μM): 11.0
